Where two headings read alike, the source gives them in different places.
Legend:
[1] = Plasma protein binding, equilibrium dialysis, rat; assay type: in vitro ADME; conditions: plasma (10% plasma, extrapolated to 100% plasma), Sprague-Dawley plasma, 18 hours at 37° C.
Description: Protein binding is measured using the equilibrium dialysis technique. Compound is added to 10% plasma giving a concentration of 10 μM and dialysed with isotonic buffer for 18 hours at 37° C. The plasma and buffer solutions are analysed using generic LC UV/MS and the first apparent binding constant for the compound derived. The binding constant is then used to determine the % free in 100% plasma
The percentage of plasma bound/unbound fraction preparation was calculated as follows
[formula] [formula] where, • Tc=Total plasma concentration was determined by the calculated concentration on the plasma side of the chamber • Fc=[…] was determined by the calculated concentration on the buffer side of the chamber • To=Total compound concentration determined before analysis.

[2] = Metabolic stability and intrinsic clearance in rat hepatocytes (with IVIVE); assay type: in vitro ADME; conditions: Rat hepatocytes
Description: (§1) The metabolic stability was expressed as the percentage of parent remaining is calculated from the peak area ratio of NCE remaining after incubation (tx) compared to the time zero (t0) incubation. The percentage of parent test compound remaining at each time point was calculated by comparing the peak area ratio of test compound after incubation (tx) with peak area of time zero (t0) incubation. Similarly, half-life (t½) was calculated using following equation:
(§2) [formula] The intrinsic clearance (Clint) was calculated using the following equations:
(§3) [formula] Scaling factors to represent […] million cells/gm liver and liver/kg body wt.

[3] = test system: Rat hepatocytes; test: as above; assay type: in vitro ADME; conditions: Rat; for Predicted CLh: IVIVE from hepatocyte CLint; for Hepatocyte Clint: Table 6 (IVIVE)
Description: as §1, §2, §3

[4] = Metabolic stability and intrinsic clearance in dog hepatocytes (with IVIVE); assay type: in vitro ADME; conditions: Dog hepatocytes
Description: as §1, §2, §3

[5] = test system: Dog hepatocytes; test: as above; assay type: in vitro ADME; conditions: Dog; for Predicted CLh: IVIVE from hepatocyte CLint; for Hepatocyte Clint: Table 6 (IVIVE)
Description: as §1, §2, §3

[6] = Cell based permeability/efflux Caco-2 assay; assay type: in vitro ADME; conditions: human, Caco-2, 10 μM; for Papp A→B at 120 min, 10 µM: apical to basolateral; for Papp B→A at 120 min, 10 µM: basolateral to apical
Description: Briefly, Permeability in a Caco-2 monolayer was determined at 10 μM. High density Caco-2 cells were obtained with fluent monolayer with trans epithelial electrical resistance (TEER) values greater than 350 ohm·cm^2 in the assay at 21 days of culture in 24 or 96 well insert plates. TEER was measured both before and after performing all the transport experiments. […] Transport buffer, 800 μL Hanks balanced salt sodium (HBSS) (pH 7.4) consisting of 10 mM HEPES without proteins was first dispensed to the basal side of the monolayer. The assay was then initiated by adding 200 μL, of compound solution to the apical side (all test compounds were diluted in HBSS, pH 6.5, with 1% DMSO as co-solvent). Two μL and 200 μL of samples were withdrawn before and at 45- and 120-min post addition of test compound, from the apical donor compartment and the base lateral receiver compartment, respectively. The transwell plates were kept for 120 min of incubation time at 37° C., 5% CO2, 95% relative humidity. At the end of incubation, sample solutions from both donor and receiver wells were mixed with acetonitrile containing internal standard (IS) immediately. Samples were analyzed including starting dosing solution, donor solution, and receiver solution by LC/MS/MS (API-4500). Concentrations of test compound was expressed as area ratio of analytes versus internal standard (IS).
A passive permeability was determined by complete chemical inhibition of the three major efflux transporters, ABCB1 (P-gp), ABCG2 (BCRP) and […] in Caco-2 cells using a cocktail of chemical inhibitors quinidine (P-gp), sulfasalazine (BCRP) and benzbromarone (MRP2)
The mean apparent permeability (Papp, X 10^−[…]) is calculated as follows
[formula] Where dq/dt=rate of transport (rate of transport of compound in the receiver compartment), Co=initial concentration in the donor compartment, A=surface area of the effective filter membrane. Plot the cumulative amount of transported drug against time to obtain rate transport. The percent recovery was calculated using the following equation

[7] = Pharmacokinetic study in mice; assay type: in vivo, CD1 mice; conditions: for Cmax / Tmax: po
Description: Intravenous (i.v) and Oral formulations for pharmacokinetic (PK) studies was formulated in different vehicles and excipients to achieve the desirable solubility for intravenous and Oral routes of administration.
Appropriate amount of the test compound was weighed and dissolved in required volume of the vehicles, followed by vertexing for a few seconds to dissolve the compound. Then the solution (or) suspension was sonicated at room temperature for 5 minutes to obtain a visually clear solution and or homogenous suspension. All the formulations were prepared freshly at room temperature before dosing.
The rodent pharmacokinetic studies were carried out in male Sprague-Dawley (SD) rats (8-12 weeks of age, weighing 280±20 g at the time of dosing) and CD1 mice (8-12 weeks of age, weighing 30-35 g body weight at the time of dosing) to estimate the plasma clearance, volume of distribution and terminal half-life, area under curve (AUC) and peak plasma concentration (Cmax) and time of peak plasma concentration (Tmax) following intravenous and oral routes of administration. The detailed experimental design is described in the Table 8 below.
Rats were anaesthetized by Isoflurane anaesthesia. The jugular and femoral veins of rat were cannulated, and the study was performed 48 h post cannulation. At each time point about 100 μL, of rat blood was collected from the jugular vein into a labelled microfuge tube containing 200 mM K2EDTA solution (20 μL, per mL of blood) and equivalent volume of heparinized saline was replaced following sample collection. Similarly, 25 μL, of mice blood was collected from the saphenous vein into a labelled microfuge tube containing 200 mM K2EDTA solution
Serial blood sampling method was used for blood collection. Blood samples were collected at pre-dose, 0.25 h, 0.5, 1, 2, 4, 6, 8 and 24-hours post dose. The blood samples were processed to obtain the plasma samples within 30 min of scheduled sampling time. All plasma samples were stored −70° C. until bioanalysis.
Plasma samples were analysed for a fit-for purpose LC-MS/MS method with a lower limit of quantification. The pharmacokinetic parameters were calculated using the non-compartmental analysis tool of validated Phoenix® WinNonlin® software (Certara, USA version 8.4) with linear up and log down method for estimating AUC.
All animals in intravenous (IV bolus) group were under fed state and animals in oral groups were fasted overnight (min 12 hr) before dose administration and food was provided 4 h post dose administration. All animals were received water ad libitum during the study period. The mean (±SD) pharmacokinetic parameters of Example 13, Example 122b & Example 39 following IV bolus and Oral dose administration in Mice/Rat and Dog is provided in Table-9.

[8] = CD1, mouse, plasma, iv, i.v, 15 mg/kg
[9] = CD1, mouse, plasma, 30 mg/kg, p.o, 30 mg/kg, read-out: Cmax (head Co*/)
[10] = CD1, mouse, plasma, 30 mg/kg, p.o, 30 mg/kg, read-out: Tmax (head Tma)

| fraction unbound at 18 h, 10 µM [1] | hepatocyte CLint at 0.5 μM [2] | Predicted CLh [3] | Hepatocyte Clint [3] | hepatocyte CLint at 0.5 μM [4] | Predicted CLh [5] | Hepatocyte Clint [5] | Papp A→B at 120 min, 10 µM [6] | Papp B→A at 120 min, 10 µM [6] | Cmax [7, 9] | Tmax [7, 10] | SMILES | other results |
| --- | --- | --- | --- | --- | --- | --- | --- | --- | --- | --- | --- | --- |
| 0.249 | < 8.2 µL/min/1e6 cells | 23 mL/min/kg | <8.2 μl/min/10^6 | 10.8 µL/min/1e6 cells | 18 mL/min/kg | 10.8 μl/min/10^6 | 18.4 ×10⁻⁶ cm/s | 18.5 ×10⁻⁶ cm/s | 3300 ng/mL | 12 min | CCc1c(C)nn2c(N)c(C#N)c(NCCc3ccn(C4(CO)CC4)n3)nc12 [Example 39, 7-amino-3-ethyl-5-((2-(1-(1-(hydroxymethyl)cyclopropyl)-1H-pyrazol-3-yl)ethyl)amino)-2-methylpyrazolo[1,5-a] pyrimidine-6-carbonitrile] | clearance [7, 8]: 58 ± 14 mL/min/kg; half-life [7, 8]: 54 min; Vd ([7]; CD1, mouse, plasma, iv, i.v, 15 mg/kg, read-out: Vss): 1 L/kg; bioavailability ([7]; CD1, mouse, plasma, oral 30 mg/kg vs IV bolus 15 mg/kg, read-out: % F (bioavailability)): 15%; Co (head Co*/) ([7]; i.v, 15 mg/kg): 2236 ng/m; Oral exposure in mice ([7]; oral, compared with Example 13): High oral exposure |
| 0.0964 | 34 µL/min/1e6 cells | 41 mL/min/kg | 34 μl/min/10^6 | 9.5 µL/min/1e6 cells | 17 mL/min/kg | 9.5 μl/min/10^6 | 58 ×10⁻⁶ cm/s | 19.5 ×10⁻⁶ cm/s | 236 ng/mL | 12 min | Cc1cccc(CCNc2nc3c(C)c(C)nn3c(N)c2C#N)n1 [Example 13, 7-amino-5-((2-(6-methylpyridin-2-yl)ethyl)amino)-2,3-dimethylpyrazolo[1,5-a]pyrimidine-6-carbonitrile] |  |
| 0.139 | 4.7 µL/min/1e6 cells | 16 mL/min/kg | 4.7 μl/min/10^6 | < 4.1 µL/min/1e6 cells | 10 mL/min/kg | <4.1 μl/min/10^6 | 14.4 ×10⁻⁶ cm/s | 15.9 ×10⁻⁶ cm/s |  |  | CCc1c(C)nn2c(N)c(C#N)c(NCCc3ccn(C4COCC4CO)n3)nc12 (single isomer, unassigned; (-)) [Example 122b, (−)-7-amino-3-ethyl-5-((2-(1-(4-(hydroxymethyl)tetrahydrofuran-3-yl)-1H-pyrazol-3-yl)ethyl)amino)-2-methyl pyrazolo[1,5-a]pyrimidine-6-carbonitrile] | AUC(0-t) ([7]; CD1, mouse, plasma, 100 mg/kg oral): 10500 ng·h/mL; Cmax ([7]; CD1, mouse, plasma, 100 mg/kg, 100 mg/kg oral, read-out: C. (Cmax)): 13800 ng/mL; Tmax ([7]; CD1, mouse, plasma, 100 mg/kg, 100 mg/kg oral, read-out: Tmax): 15 min; Cmax ([7]; CD1, mouse, plasma, 100 mg/kg, p.o, 100 mg/kg, read-out: Cmax (head Co*/)): 13800 ng/mL; Tmax ([7]; CD1, mouse, plasma, 100 mg/kg, p.o, 100 mg/kg, read-out: Tmax (head Tma)): 12 min |

From patent US12577247B2 (BUGWORKS RESEARCH, INC., priority 2021, dated 2026)
